Common to all, as to assay: relative viability (nuclei count vs DMSO), 5 days (fraction); higher = more cells survive
Compound in test [1]: CC1=CC=C(C=C1)C(=O)CN2C3=C(CCCC3)SC2=N [Pifithrin_alpha] + C[C@]1(O)C[C@@H](c2nc(-c3ccc4ccc(-c5ccccc5)nc4c3)c3c(N)nccn32)C1 [Linsitinib] (partner 1 µM)
The method, boiled down: (§1)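 Five library-drug doses in √10 steps were combined with a fixed anchor-drug dose, or a single drug was given alone, by pin tool to lung cancer cell lines in 1536-well plates the day after seeding. Nuclei were stained and counted after 5 days. Relative viability is the nuclei count in treated wells over that in vehicle wells, taken as the median of duplicate plates.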

Compound in the test “Bemcentinib + OSI-027”: Nc1nc(Nc2ccc3c(c2)CC[C@@H](N2CCCC2)CC3)nn1-c1cc2c(nn1)-c1ccccc1CCC2 [Bemcentinib] + COc1cccc2cc(-c3nc([C@H]4CC[C@H](C(=O)O)CC4)n4ncnc(N)c34)[nH]c12 [OSI-027] (partner 0.5 µM)
The method, boiled down: as §1

Compound in the test “Axitinib + Pemetrexed”: CNC(=O)c1ccccc1Sc1ccc2c(/C=C/c3ccccn3)n[nH]c2c1 [Axitinib] + Nc1nc2[nH]cc(CCc3ccc(C(=O)N[C@@H](CCC(=O)O)C(=O)O)cc3)c2c(=O)[nH]1 [Pemetrexed] (partner 0.2 µM)
The method, boiled down:
as §1

Compound in test [2]: CC1=CC=C(C=C1)C(=O)CN2C3=C(CCCC3)SC2=N [Pifithrin_alpha] + CC(C)C[C@H](NC(=O)[C@H](Cc1ccccc1)NC(=O)c1cnccn1)B(O)O [Bortezomib] (partner 0.002 µM)
The method, boiled down:
as §1

For LCLC-103H, the relative viability in test [1] (first compound 1 µM) came to 0.915; in test [1] (first compound 3.162 µM), 0.954; in test [1] (first compound 10 µM), 1.09; in test [1] (first compound 31.62 µM) it was 0.986; in test [1] (first compound 100 µM) it was 1.18; with Bemcentinib + OSI-027 (first compound 0.04 µM) it was 0.479. Moreover, the relative viability with Bemcentinib + OSI-027 (first compound 0.1265 µM) amounted to 0.5; in the test with Bemcentinib + OSI-027 (first compound 0.4 µM), 0.452; with Bemcentinib + OSI-027 (first compound 1.265 µM), 0.422; with Bemcentinib + OSI-027 (first compound 4 µM) it was 0.448; in the test with Axitinib + Pemetrexed (first compound 0.005 µM), 0.507; in the test with Axitinib + Pemetrexed (first compound 0.01581 µM), 0.443. For the same cell line, the relative viability with Axitinib + Pemetrexed (first compound 0.05 µM) came to 0.496; with Axitinib + Pemetrexed (first compound 0.1581 µM), 0.477; with Axitinib + Pemetrexed (first compound 0.5 µM), 0.526; in test [2] (first compound 1 µM), 1.12; in test [2] (first compound 3.162 µM), 1.08; in test [2] (first compound 10 µM) it was 0.902. The relative viability in test [2] (first compound 31.62 µM) stood at 0.831; in test [2] (first compound 100 µM), 1.25.

Take LOU-NH91: the relative viability in test [1] (first compound 1 µM) turned out to be 0.789; in test [1] (first compound 3.162 µM), 0.849; in test [1] (first compound 10 µM), 0.828; in test [1] (first compound 31.62 µM), 0.753; in test [1] (first compound 100 µM), 0.846; in the test with Bemcentinib + OSI-027 (first compound 0.04 µM) it was 0.697. In addition, the relative viability stood at 0.703 in the test with Bemcentinib + OSI-027 (first compound 0.1265 µM); 0.721 with Bemcentinib + OSI-027 (first compound 0.4 µM); 0.749 in the test with Bemcentinib + OSI-027 (first compound 1.265 µM); 0.775 in the test with Bemcentinib + OSI-027 (first compound 4 µM); 0.392 in the test with Axitinib + Pemetrexed (first compound 0.005 µM); 0.402 in the test with Axitinib + Pemetrexed (first compound 0.01581 µM). The relative viability in the test with Axitinib + Pemetrexed (first compound 0.05 µM) was 0.406; with Axitinib + Pemetrexed (first compound 0.1581 µM) it was 0.421; with Axitinib + Pemetrexed (first compound 0.5 µM), 0.395; in test [2] (first compound 1 µM) it was 0.409; in test [2] (first compound 3.162 µM), 0.475; in test [2] (first compound 10 µM) it was 0.445. Moreover, the results for the relative viability in test [2] (first compound 31.62 µM) and in test [2] (first compound 100 µM) were 0.414 and 0.503, respectively.

LU99A: the relative viability in test [1] (first compound 1 µM) came out at 0.539; in test [1] (first compound 3.162 µM) it was 0.64; in test [1] (first compound 10 µM) it was 0.619; in test [1] (first compound 100 µM) it was 0.529; in the test with Bemcentinib + OSI-027 (first compound 0.04 µM), 0.283; with Bemcentinib + OSI-027 (first compound 0.1265 µM), 0.279. Also, the relative viability with Bemcentinib + OSI-027 (first compound 0.4 µM) is 0.28; with Bemcentinib + OSI-027 (first compound 1.265 µM), 0.285; in the test with Bemcentinib + OSI-027 (first compound 4 µM) it was 0.275; with Axitinib + Pemetrexed (first compound 0.005 µM), 0.196; with Axitinib + Pemetrexed (first compound 0.01581 µM) it was 0.203; with Axitinib + Pemetrexed (first compound 0.05 µM), 0.182. Also, the relative viability was 0.175 with Axitinib + Pemetrexed (first compound 0.1581 µM); 0.204 in the test with Axitinib + Pemetrexed (first compound 0.5 µM); 1.09 in test [2] (first compound 1 µM); 1.24 in test [2] (first compound 3.162 µM); 1.19 in test [2] (first compound 10 µM); 1.24 in test [2] (first compound 100 µM).

On to LXF-289, for which the relative viability in test [1] (first compound 1 µM) amounted to 0.985; in test [1] (first compound 3.162 µM), 0.967; in test [1] (first compound 10 µM), 0.959; in test [1] (first compound 31.62 µM), 0.869; in test [1] (first compound 100 µM), 0.961; with Bemcentinib + OSI-027 (first compound 0.04 µM) it was 0.744. Also, the relative viability with Bemcentinib + OSI-027 (first compound 0.1265 µM) was 0.837; with Bemcentinib + OSI-027 (first compound 0.4 µM), 0.782; with Bemcentinib + OSI-027 (first compound 1.265 µM), 0.801; with Bemcentinib + OSI-027 (first compound 4 µM) it was 0.819; with Axitinib + Pemetrexed (first compound 0.005 µM), 1.01; in the test with Axitinib + Pemetrexed (first compound 0.01581 µM), 0.91. For the same cell line, the relative viability turned out to be 0.968 with Axitinib + Pemetrexed (first compound 0.05 µM); 0.888 with Axitinib + Pemetrexed (first compound 0.1581 µM); 0.982 with Axitinib + Pemetrexed (first compound 0.5 µM); 1.01 in test [2] (first compound 1 µM); 1.01 in test [2] (first compound 3.162 µM); 1.02 in test [2] (first compound 10 µM). Besides, the values for the relative viability in test [2] (first compound 31.62 µM) and in test [2] (first compound 100 µM) were 0.813 and 0.962, respectively.

Take NCI-H23: the relative viability in test [1] (first compound 1 µM) was determined as 0.543; in test [1] (first compound 3.162 µM) it was 0.546; in test [1] (first compound 10 µM), 0.567; in test [1] (first compound 31.62 µM), 0.443; in test [1] (first compound 100 µM) it was 0.515; with Bemcentinib + OSI-027 (first compound 0.04 µM), 0.581. For the same cell line, the relative viability was determined as 0.612 with Bemcentinib + OSI-027 (first compound 0.1265 µM); 0.713 in the test with Bemcentinib + OSI-027 (first compound 0.4 µM); 0.447 with Bemcentinib + OSI-027 (first compound 1.265 µM); 0.684 with Bemcentinib + OSI-027 (first compound 4 µM); 0.678 with Axitinib + Pemetrexed (first compound 0.005 µM); 0.751 with Axitinib + Pemetrexed (first compound 0.01581 µM). Besides, the relative viability with Axitinib + Pemetrexed (first compound 0.05 µM) is 0.583; with Axitinib + Pemetrexed (first compound 0.1581 µM), 0.665; in the test with Axitinib + Pemetrexed (first compound 0.5 µM) it was 0.713; in test [2] (first compound 1 µM), 0.917; in test [2] (first compound 3.162 µM), 0.978; in test [2] (first compound 10 µM), 1.06. Also, the relative viability in test [2] (first compound 31.62 µM) is 0.61; in test [2] (first compound 100 µM), 0.875.

For the cell line NCI-H322M, the relative viability was 0.85 in test [1] (first compound 1 µM); 0.898 in test [1] (first compound 3.162 µM); 0.902 in test [1] (first compound 10 µM); 0.821 in test [1] (first compound 31.62 µM); 1.04 in test [1] (first compound 100 µM); 0.585 with Bemcentinib + OSI-027 (first compound 0.04 µM). In addition, the relative viability with Bemcentinib + OSI-027 (first compound 0.1265 µM) is 0.596; with Bemcentinib + OSI-027 (first compound 0.4 µM), 0.597; with Bemcentinib + OSI-027 (first compound 1.265 µM), 0.621; in the test with Bemcentinib + OSI-027 (first compound 4 µM) it was 0.597; with Axitinib + Pemetrexed (first compound 0.005 µM), 0.586; with Axitinib + Pemetrexed (first compound 0.01581 µM), 0.691. Besides, the relative viability with Axitinib + Pemetrexed (first compound 0.05 µM) stood at 0.679; with Axitinib + Pemetrexed (first compound 0.1581 µM), 0.628; with Axitinib + Pemetrexed (first compound 0.5 µM), 0.627; in test [2] (first compound 1 µM), 1.19; in test [2] (first compound 3.162 µM) it was 1.07; in test [2] (first compound 10 µM), 1.29. The relative viability in test [2] (first compound 31.62 µM) was found to be 1.26; in test [2] (first compound 100 µM), 1.03.

In the case of NCI-H441, the relative viability was determined as 0.52 in test [1] (first compound 1 µM); 0.528 in test [1] (first compound 3.162 µM); 0.613 in test [1] (first compound 10 µM); 0.478 in test [1] (first compound 31.62 µM); 0.662 in test [1] (first compound 100 µM); 0.583 in the test with Bemcentinib + OSI-027 (first compound 0.04 µM). The relative viability worked out at 0.695 with Bemcentinib + OSI-027 (first compound 0.1265 µM); 0.765 with Bemcentinib + OSI-027 (first compound 0.4 µM); 0.558 in the test with Bemcentinib + OSI-027 (first compound 1.265 µM); 0.659 with Bemcentinib + OSI-027 (first compound 4 µM); 0.271 in the test with Axitinib + Pemetrexed (first compound 0.005 µM); 0.305 in the test with Axitinib + Pemetrexed (first compound 0.01581 µM). Moreover, the relative viability in the test with Axitinib + Pemetrexed (first compound 0.05 µM) stood at 0.232; with Axitinib + Pemetrexed (first compound 0.1581 µM), 0.248; with Axitinib + Pemetrexed (first compound 0.5 µM), 0.265; in test [2] (first compound 1 µM), 0.245; in test [2] (first compound 3.162 µM) it was 0.821; in test [2] (first compound 10 µM) it was 0.442. For the same cell line, the relative viability in test [2] (first compound 31.62 µM) was determined as 0.448; in test [2] (first compound 100 µM), 0.503.

The record behind these values is the supplement of paper PMC10307832.
